Experimental data taken from US9969742B2, “Imidazotriazinone compounds” (Ironwood Pharmaceuticals, Inc., priority 2012, dated 2018).
Like-named read-outs stand apart in the source and are kept apart here. Each block holds one compound with its values, some of them ahead of it.

Columns and labels:
Assay type in all cases: biochemical
[1] = biological target: T1, PDE1A (Homo sapiens, UniProt P54750); assay: Phosphodiesterase enzyme screening assay, PDE1A
T1 construct: purchased Reaction Biology Corporation, Malvern, Pa
T1 sequence (P54750 whole entry): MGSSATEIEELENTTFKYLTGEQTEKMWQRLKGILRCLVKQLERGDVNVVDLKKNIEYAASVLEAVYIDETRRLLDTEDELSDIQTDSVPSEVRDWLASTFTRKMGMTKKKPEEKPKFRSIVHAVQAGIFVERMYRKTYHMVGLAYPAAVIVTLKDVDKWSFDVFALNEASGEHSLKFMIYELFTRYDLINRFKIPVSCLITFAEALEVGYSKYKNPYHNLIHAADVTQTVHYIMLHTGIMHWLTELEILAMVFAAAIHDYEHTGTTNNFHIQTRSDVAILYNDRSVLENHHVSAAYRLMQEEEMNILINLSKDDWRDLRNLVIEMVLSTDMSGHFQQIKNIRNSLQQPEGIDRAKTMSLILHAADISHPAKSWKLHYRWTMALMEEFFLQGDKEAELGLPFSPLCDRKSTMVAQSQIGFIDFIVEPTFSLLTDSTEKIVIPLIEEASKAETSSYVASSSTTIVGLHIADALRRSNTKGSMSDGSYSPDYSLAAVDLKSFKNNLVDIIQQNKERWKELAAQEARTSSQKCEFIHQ
How it was run: (§1)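 Read-out was electrophoretic mobility-shift separation on chip of fluorescent cyclic nucleotide from 5′-AMP/5′-GMP, with inhibition or enhancement judged against control wells (quadruplicate means). Reactions lasted 1 h at RT in HEPES pH 7.5 buffer with MgCl2, DTT and Brij plus 4.0 μM cGMP substrate, then were halted with EDTA stop buffer.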

[2] = biological target: T2, PDE1B (Homo sapiens, UniProt Q01064); assay: Phosphodiesterase enzyme screening assay, PDE1B
T2 construct: purchased Reaction Biology Corporation, Malvern, Pa
T2 sequence (Q01064 whole entry): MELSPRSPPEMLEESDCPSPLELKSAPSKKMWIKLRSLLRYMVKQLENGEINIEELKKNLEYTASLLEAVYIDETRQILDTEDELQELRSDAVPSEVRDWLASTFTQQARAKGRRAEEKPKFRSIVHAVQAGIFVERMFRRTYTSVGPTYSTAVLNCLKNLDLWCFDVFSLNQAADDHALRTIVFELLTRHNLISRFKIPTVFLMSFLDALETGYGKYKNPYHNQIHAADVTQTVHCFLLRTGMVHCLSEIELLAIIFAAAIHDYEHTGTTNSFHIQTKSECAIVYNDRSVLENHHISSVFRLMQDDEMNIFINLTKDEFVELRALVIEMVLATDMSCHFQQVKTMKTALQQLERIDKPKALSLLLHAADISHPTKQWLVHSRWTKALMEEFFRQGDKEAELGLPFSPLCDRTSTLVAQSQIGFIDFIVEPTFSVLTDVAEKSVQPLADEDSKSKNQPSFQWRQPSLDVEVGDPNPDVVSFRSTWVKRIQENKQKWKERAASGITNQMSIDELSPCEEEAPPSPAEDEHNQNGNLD
How it was run: as §1

[3] = biological target: T3, PDE9A2 (Homo sapiens, UniProt O76083); assay: Phosphodiesterase enzyme screening assay, PDE9A2
T3 construct: purchased Reaction Biology Corporation, Malvern, Pa
T3 sequence (O76083 1-533 isoform O76083-2): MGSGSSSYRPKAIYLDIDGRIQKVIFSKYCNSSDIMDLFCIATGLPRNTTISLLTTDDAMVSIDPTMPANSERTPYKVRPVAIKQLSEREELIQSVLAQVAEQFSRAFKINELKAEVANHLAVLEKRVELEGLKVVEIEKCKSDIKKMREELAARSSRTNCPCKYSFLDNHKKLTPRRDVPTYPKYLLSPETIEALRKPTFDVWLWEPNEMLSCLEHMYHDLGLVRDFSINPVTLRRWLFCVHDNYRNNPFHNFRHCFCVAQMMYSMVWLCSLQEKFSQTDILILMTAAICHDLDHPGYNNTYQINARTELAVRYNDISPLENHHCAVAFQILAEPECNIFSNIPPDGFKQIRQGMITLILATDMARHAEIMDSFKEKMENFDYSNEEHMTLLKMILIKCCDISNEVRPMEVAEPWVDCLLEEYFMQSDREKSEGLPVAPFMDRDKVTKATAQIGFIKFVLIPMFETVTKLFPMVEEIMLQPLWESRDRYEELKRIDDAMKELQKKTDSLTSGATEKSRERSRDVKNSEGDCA
How it was run: as §1

[4] = Table 2, ratio of IC50 values, value greater than 1 indicates greater selectivity for PDE9A2
[5] = Table 2, 10 concentrations, 4.0 μM cGMP substrate, 1 hour at R.T., read-out: Band (PDE9A2 IC50)
[6] = ratio of IC50 values, value greater than 1 indicates greater selectivity for PDE9A2
[7] = 4.0 μM cGMP substrate, 1 hour at R.T., read-out: Band (PDE9A2 IC50)
[8] = Table 1, ratio of IC50 values, value greater than 1 indicates greater selectivity for PDE9A2
[9] = Table 1, 10 concentrations, 4.0 μM cGMP substrate, 1 hour at R.T., read-out: Band (PDE9A2 IC50)
[10] = ratio of IC50 values, PDE1A versus PDE9A2, value greater than 1 = greater selectivity for PDE9A2
[11] = ratio of IC50 values, PDE1B versus PDE9A2, value greater than 1 = greater selectivity for PDE9A2
[12] = Table 3, 4.0 μM cGMP substrate, 1 hour at R.T., read-out: Band (PDE9A2 IC50)
[13] = ratio of IC50 values, PDE1A versus PDE9A2, value greater than 1 indicates greater selectivity for PDE9A2
[14] = ratio of IC50 values, PDE1B versus PDE9A2, value greater than 1 indicates greater selectivity for PDE9A2
[15] = ratio of IC50 values PDE1A vs PDE9A2, value greater than 1 indicates greater selectivity for PDE9A2
[16] = ratio of IC50 values PDE1B vs PDE9A2, value greater than 1 indicates greater selectivity for PDE9A2
[17] = IC50 band, 4.0 μM cGMP substrate, 1 hour at R.T.

PDE1A selectivity (versus PDE9A2) [1, 4]: 133
PDE1B selectivity (versus PDE9A2) [2, 4]: 279
IC50 [3, 5]: < 1000 nM
Compound: CC1CN(Cc2ncc(F)cn2)CC1c1nn2c(C3CCOCC3)ncc2c(=O)[nH]1 (single isomer, unassigned; (+)) [(+)-2-((3,4-trans)-1-((5-fluoropyrimidin-2-yl)methyl)-4-methylpyrrolidin-3-yl)-7-(tetrahydro-2H-pyran-4-yl)imidazo[5,1-f][1,2,4]triazin-4(3H)-one]

PDE1A selectivity (versus PDE9A2) [1, 6]: 216
PDE1B selectivity (versus PDE9A2) [2, 6]: 540
IC50 ([3]; read-out: Band (PDE9A2 IC50)): < 1000 nM
Compound: COc1ccc(CN2CC(C)C(c3nn4c(C5CCOCC5)ncc4c(=O)[nH]3)C2)nc1 (single isomer, unassigned; (+)) [(+)-2-((3,4-trans)-1-((5-methoxypyridin-2-yl)methyl)-4-methylpyrrolidin-3-yl)-7-(tetrahydro-2H-pyran-4-yl)imidazo[5,1-f][1,2,4]triazin-4(3H)-one]

PDE1A selectivity (versus PDE9A2) ([1]; ratio of IC50 values PDE1A / PDE9A2, value greater than 1 = greater selectivity for PDE9A2): 1060
PDE1B selectivity (versus PDE9A2) ([2]; ratio of IC50 values PDE1B / PDE9A2, value greater than 1 = greater selectivity for PDE9A2): 1780
IC50 [3, 7]: < 1000 nM
Compound: COc1cncc(CN2CC(C)C(c3nn4c(C5CCOCC5)ncc4c(=O)[nH]3)C2)c1 (single isomer, unassigned; (+)) [(+)-2-((3,4-trans)-1-((5-methoxypyridin-3-yl)methyl)-4-methylpyrrolidin-3-yl)-7-(tetrahydro-2H-pyran-4-yl)imidazo[5,1-f][1,2,4]triazin-4(3H)-one]

PDE1A selectivity (versus PDE9A2) [1, 4]: 26
PDE1B selectivity (versus PDE9A2) [2, 4]: 64
IC50 [3, 5]: < 1000 nM
Compound: COc1cnc(CN2CC(C)C(c3nn4c(C5CCOCC5)ncc4c(=O)[nH]3)C2)nc1 (single isomer, unassigned; (+)) [(+)-2-((3,4-trans)-1-((5-methoxypyrimidin-2-yl)methyl)-4-methylpyrrolidin-3-yl)-7-(tetrahydro-2H-pyran-4-yl)imidazo[5,1-f][1,2,4]triazin-4(3H)-one]

PDE1A selectivity (versus PDE9A2) [1, 8]: 579
PDE1B selectivity (versus PDE9A2) [2, 8]: 571
IC50 [3, 9]: < 1000 nM
Compound: COc1cccc(CN2CC(C)C(c3nn4c(C5CCOCC5)ncc4c(=O)[nH]3)C2)n1 (single isomer, unassigned; (+)) [(+)-2-((3,4-trans)-1-((6-methoxypyridin-2-yl)methyl)-4-methylpyrrolidin-3-yl)-7-(tetrahydro-2H-pyran-4-yl)imidazo[5,1-f][1,2,4]triazin-4(3H)-one]

PDE1A selectivity (versus PDE9A2) [1, 10]: 39
PDE1B selectivity (versus PDE9A2) [2, 11]: 76
IC50 [3, 12]: < 1000 nM
Compound: CC1CN(Cc2ccc3cccc(F)c3n2)CC1c1nn2c(C3CCOCC3)ncc2c(=O)[nH]1 (single isomer, unassigned; (+)) [(+)-2-((3,4-trans)-1-((8-fluoroquinolin-2-yl)methyl)-4-methylpyrrolidin-3-yl)-7-(tetrahydro-2H-pyran-4-yl)imidazo[5,1-f][1,2,4]triazin-4(3H)-one]

PDE1A selectivity (versus PDE9A2) [1, 13]: 3
PDE1B selectivity (versus PDE9A2) [2, 14]: 10
IC50 ([3]; read-out: Band (PDE9A2 IC50)): < 1000 nM
Compound: CC1CN(Cc2nc3ccccn3n2)CC1c1nn2c(-c3cccc(F)c3)ncc2c(=O)[nH]1 (single isomer, unassigned; (+)) [(+)-2-((3,4-trans)-1-([1,2,4]triazolo[1,5-a]pyridin-2-ylmethyl)-4-methylpyrrolidin-3-yl)-7-(3-fluorophenyl)imidazo[5,1-f][1,2,4]triazin-4(3H)-one]

PDE1A selectivity (versus PDE9A2) [1, 8]: 597
PDE1B selectivity (versus PDE9A2) [2, 8]: 1847
IC50 [3, 9]: < 1000 nM
Compound: CC1CN(Cc2nc3ccccn3n2)CC1c1nn2c(C3CCC(F)(F)CC3)ncc2c(=O)[nH]1 (single isomer, unassigned; (+)) [(+)-2-((3,4-trans)-1-([1,2,4]triazolo[1,5-a]pyridin-2-ylmethyl)-4-methylpyrrolidin-3-yl)-7-(4,4-difluorocyclohexyl)imidazo[5,1-f][1,2,4]triazin-4(3H)-one]

PDE1A selectivity (versus PDE9A2) [1, 13]: 1000
PDE1B selectivity (versus PDE9A2) [2, 14]: 2140
IC50 ([3]; read-out: Band (PDE9A2 IC50)): < 1000 nM
Compound: Cc1cc(F)c(F)cc1-c1ncc2c(=O)[nH]c(C3CN(Cc4nc5ccccn5n4)CC3C)nn12 (single isomer, unassigned; (+)) [(+)-2-((3,4-trans)-1-([1,2,4]triazolo[1,5-a]pyridin-2-ylmethyl)-4-methylpyrrolidin-3-yl)-7-(4,5-difluoro-2-methylphenyl)imidazo[5,1-f][1,2,4]triazin-4(3H)-one]

PDE1A selectivity (versus PDE9A2) [1, 15]: 215
PDE1B selectivity (versus PDE9A2) [2, 16]: 473
IC50 [3, 17]: < 1000 nM
Compound: Cc1cc(F)ccc1-c1ncc2c(=O)[nH]c(C3CN(Cc4nc5ccccn5n4)CC3C)nn12 (single isomer, unassigned; (+)) [(+)-2-((3,4-trans)-1-([1,2,4]triazolo[1,5-a]pyridin-2-ylmethyl)-4-methylpyrrolidin-3-yl)-7-(4-fluoro-2-methylphenyl)imidazo[5,1-f][1,2,4]triazin-4(3H)-one]

PDE1A selectivity (versus PDE9A2) [1, 13]: 87
PDE1B selectivity (versus PDE9A2) [2, 14]: 87
IC50 ([3]; read-out: Band (PDE9A2 IC50)): < 1000 nM
Compound: CC1CN(Cc2nc3ccccn3n2)CC1c1nn2c(-c3ccc(F)cc3)ncc2c(=O)[nH]1 (single isomer, unassigned; (+)) [(+)-2-((3,4-trans)-1-([1,2,4]triazolo[1,5-a]pyridin-2-ylmethyl)-4-methylpyrrolidin-3-yl)-7-(4-fluorophenyl)imidazo[5,1-f][1,2,4]triazin-4(3H)-one]

PDE1A selectivity (versus PDE9A2) [1, 13]: 56
PDE1B selectivity (versus PDE9A2) [2, 14]: 115
IC50 ([3]; read-out: Band (PDE9A2 IC50)): < 1000 nM
Compound: Cc1ccncc1-c1ncc2c(=O)[nH]c(C3CN(Cc4nc5ccccn5n4)CC3C)nn12 (single isomer, unassigned; (+)) [(+)-2-((3,4-trans)-1-([1,2,4]triazolo[1,5-a]pyridin-2-ylmethyl)-4-methylpyrrolidin-3-yl)-7-(4-methylpyridin-3-yl)imidazo[5,1-f][1,2,4]triazin-4(3H)-one]

PDE1A selectivity (versus PDE9A2) [1, 15]: 487
PDE1B selectivity (versus PDE9A2) [2, 16]: 473
IC50 [3, 17]: < 1000 nM
Compound: Cc1ccc(F)cc1-c1ncc2c(=O)[nH]c(C3CN(Cc4nc5ccccn5n4)CC3C)nn12 (single isomer, unassigned; (+)) [(+)-2-((3,4-trans)-1-([1,2,4]triazolo[1,5-a]pyridin-2-ylmethyl)-4-methylpyrrolidin-3-yl)-7-(5-fluoro-2-methylphenyl)imidazo[5,1-f][1,2,4]triazin-4(3H)-one]

PDE1A selectivity (versus PDE9A2) [1, 13]: 490
PDE1B selectivity (versus PDE9A2) [2, 14]: 429
IC50 ([3]; read-out: Band (PDE9A2 IC50)): < 1000 nM
Compound: Cc1ccccc1-c1ncc2c(=O)[nH]c(C3CN(Cc4nc5ccccn5n4)CC3C)nn12 (single isomer, unassigned; (+)) [(+)-2-((3,4-trans)-1-([1,2,4]triazolo[1,5-a]pyridin-2-ylmethyl)-4-methylpyrrolidin-3-yl)-7-(o-tolyl)imidazo[5,1-f][1,2,4]triazin-4(3H)-one]

PDE1A selectivity (versus PDE9A2) ([1]; ratio of IC50 values PDE1A / PDE9A2, value greater than 1 indicates greater selectivity for PDE9A2): 386
PDE1B selectivity (versus PDE9A2) ([2]; ratio of IC50 values PDE1B / PDE9A2, value greater than 1 indicates greater selectivity for PDE9A2): 306
IC50 [3, 7]: < 1000 nM
Compound: CCC(CC)c1ncc2c(=O)[nH]c(C3CN(Cc4nc5ccccn5n4)CC3C)nn12 (single isomer, unassigned; (+)) [(+)-2-((3,4-trans)-1-([1,2,4]triazolo[1,5-a]pyridin-2-ylmethyl)-4-methylpyrrolidin-3-yl)-7-(pentan-3-yl)imidazo[5,1-f][1,2,4]triazin-4(3H)-one]

PDE1A selectivity (versus PDE9A2) [1, 8]: 563
PDE1B selectivity (versus PDE9A2) [2, 8]: 457
IC50 [3, 9]: < 1000 nM
Compound: CC1CN(Cc2nc3ccccn3n2)CC1c1nn2c(C3CCOCC3)ncc2c(=O)[nH]1 (single isomer, unassigned; (+)) [(+)-2-((3,4-trans)-1-([1,2,4]triazolo[1,5-a]pyridin-2-ylmethyl)-4-methylpyrrolidin-3-yl)-7-(tetrahydro-2H-pyran-4-yl)imidazo[5,1-f][1,2,4]triazin-4(3H)-one]

PDE1A selectivity (versus PDE9A2) [1, 13]: 98
PDE1B selectivity (versus PDE9A2) [2, 14]: 204
IC50 ([3]; read-out: Band (PDE9A2 IC50)): < 1000 nM
Compound: CC1CN(Cc2nc3ccccn3n2)CC1c1nn2c(C3CCCC3)ncc2c(=O)[nH]1 (single isomer, unassigned; (+)) [(+)-2-((3,4-trans)-1-([1,2,4]triazolo[1,5-a]pyridin-2-ylmethyl)-4-methylpyrrolidin-3-yl)-7-cyclopentylimidazo[5,1-f][1,2,4]triazin-4(3H)-one]

PDE1A selectivity (versus PDE9A2) [1, 10]: 212
PDE1B selectivity (versus PDE9A2) [2, 11]: 473
IC50 [3, 12]: < 1000 nM
Compound: CC1CN(Cc2ccc3nsnc3c2)CC1c1nn2c(C3CCOCC3)ncc2c(=O)[nH]1 (single isomer, unassigned; (+)) [(+)-2-((3,4-trans)-1-(benzo[c][1,2,5]thiadiazol-5-ylmethyl)-4-methylpyrrolidin-3-yl)-7-(tetrahydro-2H-pyran-4-yl)imidazo[5,1-f][1,2,4]triazin-4(3H)-one]
